“And” between values parts separate entries of the source, which are not always exact repeats. Identical values can stand only once. Like-named read-outs stand apart in the source and are kept apart here.
Experiments:
Aedes aegypti larvae = assay: Aedes aegypti killing assay (larval bioassay, two-fold dilution series); format: in vivo; details: Aedes aegypti, 72 h
Method: Insect killing assays. Each compound was dissolved in dimethyl sulfoxide (DMSO). Killing dose curves were constructed for each compound by producing a two-fold dilution series for each compound (e.g., comprising approximately 20 serial dilutions of a stock). Dilutions were made in sterile nutrient yeast extract salt medium (NYSM) broth. The NYSM contained 8 g/L nutrient broth powder, 0.5 g/L yeast extract, 1 mM MgCl2, 700 μM CaCl2, and 50 μM MnCl2 in water. The two-fold dilution series were tested in a killing bioassay as described below. Data were collected to construct a dose curve and determine the half-maximal lethal concentration (LC50) value.
Bioassays were performed using second or third instar Aedes aegypti larvae, with biological replication. Ae. aegpyti larvae were purchased from Benzon Research, Inc. (Carlisle, PA). Larvae were washed with sterile water before transfer to 24-well assay plates containing 1 mL of sterile water in each well. Each well contained 5 larvae. The final DMSO concentration in each assay well was 1%. Larval mortality was scored for each well at 24-hour timepoints after application. […] In Table 1, mean mortalities and standard deviations were calculated from at least three independent biological replicates. […] LC50 values were calculated using GraphPad Prism software.

Aedes aegypti = details: previously shown; cited from earlier work
[1] = test system: Spodoptera frugiperda (fall armyworm) first instar larvae; assay: Spodoptera frugiperda killing assay (diet-surface overlay); format: in vivo; details: for LC50: Spodoptera frugiperda
Method: Insect killing assays. Each compound was dissolved in dimethyl sulfoxide (DMSO). Killing dose curves were constructed for each compound by producing a two-fold dilution series of the compound (e.g., comprising approximately 16 serial dilutions of a stock for 3,3′-diindolylmethane and 3-((1H-Indol-2-yl)methyl)-1H-indole and comprising approximately 12 serial dilutions of a stock for 3,3′-diindolyl and 3,3′-(pyridin-4-ylmethylene)bis(1H-indole)). Dilutions were made in sterile NYSM broth as described above. The two-fold dilution series were tested in a killing bioassay as described below. Data were collected to construct a dose curve and determine the half-maximal lethal concentration (LC50) value.
Bioassays were performed using first instar larvae of the Lepidopteran species Spodoptera frugiperda (fall armyworm), with an N=16 for each concentration of compound tested. S. frugiperda larvae were purchased from Benzon Research, Inc. (Carlisle, PA). A diet-surface overlay format was used in which 1 milliliter of standard lepidopteran diet was placed in each well. One hundred microliters of sample were pipetted into each well and allowed to dry. A DMSO control was included with each set of samples.
During the development of embodiments of the technology described herein, experiments were conducted to test the killing of arundine against a panel of 11 insect species. […] Briefly, arundine was dissolved in dimethyl sulfoxide (DMSO). Killing dose curves were constructed by producing a two-fold dilution series of arundine. Dilutions were made in sterile NYSM as described. The two-fold dilution series were tested in a killing bioassay performed using first instar larvae of the species listed in Table 4, with an N=16 for each concentration of compound tested. A diet-surface overlay format was used in which 1 milliliter of standard lepidopteran diet was placed in each well. One hundred microliters of sample were pipetted into each well and allowed to dry. A DMSO control was included with each set of samples. […] Data were collected to construct a dose curve and determine the half-maximal lethal concentration (LC50) value.

[2] = test system: fall armyworm (Spodoptera frugiperda); details: after seven days of exposure; cited from earlier work
[3] = test system: D. saccharalis (Sugarcane borer) first instar larvae; assay: Insect panel killing assay (diet-surface overlay); format: in vivo
Method: (§1) During the development of embodiments of the technology described herein, experiments were conducted to test the killing of arundine against a panel of 11 insect species. Killing assays were performed as described in Example 2 for Spodoptera frugiperda. Briefly, arundine was dissolved in dimethyl sulfoxide (DMSO). Killing dose curves were constructed by producing a two-fold dilution series of arundine. Dilutions were made in sterile NYSM as described. The two-fold dilution series were tested in a killing bioassay performed using first instar larvae of the species listed in Table 4, with an N=16 for each concentration of compound tested. A diet-surface overlay format was used in which 1 milliliter of standard lepidopteran diet was placed in each well. One hundred microliters of sample were pipetted into each well and allowed to dry. A DMSO control was included with each set of samples. Spinosad (MilliporeSigma, catalog #33706) was used as a positive control for insecticidal activity, and water was used as an additional negative control. Data were collected to construct a dose curve and determine the half-maximal lethal concentration (LC50) value. In Table 4, % of insects killed is provided in the table cells for the concentrations listed at the top (2500, 625, 156, and 0 μg/mL arundine).

[4] = test system: C. pomonella (Codling moth) first instar larvae; assay: Insect panel killing assay (diet-surface overlay); format: in vivo
Method: as §1

[5] = test system: C. includens (Soybean looper) first instar larvae; assay: Insect panel killing assay (diet-surface overlay); format: in vivo
Method: as §1

[6] = test system: D. grandiosella (Southwestern corn borer) first instar larvae; assay: Insect panel killing assay (diet-surface overlay); format: in vivo
Method: as §1

[7] = test system: T. ni (Cabbage looper) first instar larvae; assay: Insect panel killing assay (diet-surface overlay); format: in vivo
Method: as §1

[8] = test system: A. gemmatalis (Velvetbean caterpillar) first instar larvae; assay: Insect panel killing assay (diet-surface overlay); format: in vivo
Method: as §1

[9] = test system: H. virescens (Tobacco budworm) first instar larvae; assay: Insect panel killing assay (diet-surface overlay); format: in vivo
Method: as §1

[10] = test system: S. eridania (Southern armyworm) first instar larvae; assay: Insect panel killing assay (diet-surface overlay); format: in vivo
Method: as §1

[11] = test system: S. exigua (Beet armyworm) first instar larvae; assay: Insect panel killing assay (diet-surface overlay); format: in vivo
Method: as §1

[12] = test system: H. zea (Corn earworm) first instar larvae; assay: Insect panel killing assay (diet-surface overlay); format: in vivo
Method: as §1

Vip3A resistant FAW = assay: Killing of Vip3A resistant fall armyworm; format: in vivo, Spodoptera frugiperda; details: 1000 ppm BIM compound, 20 μl on diet surface, 5-7 days
Method: (§2) During the development of embodiments of the technology provided herein, experiments were conducted to test the killing potency of arundine-derived BIM compounds against strains of fall armyworm (FAW) that are resistant to Bacillus thuringiensis (Bt) insecticidal proteins (e.g., Cry1Fa and Vip3A). Susceptible FAW (Spodoptera frugiperda) was obtained from Benzon Research Inc, Lancaster, PA. Cry1Fa resistant FAW originating from Puerto Rico was reared in a facility by Genective (Weldon, IL). Vip3A resistant FAW originating from southern US was reared in a facility by Genective (Weldon, IL).
(§3) FAW eggs were incubated at approximately 26° C. at 50% relative humidity until eclosion (approximately 3 days) and the hatch was timed to within 12 hours of infesting the diet plates. BIM compounds were obtained from frozen stocks, thawed, suspended in 5% DMSO along with NYSM buffer to provide a solution of 2000 ppm BIM compound in a total volume of 1.0 ml, and stored at −20° C. For testing, a single tube of each BIM compound sample was thawed at 4° C. NYSM buffer was warmed to room temperature. A volume of 750 μl. NYSM buffer was added to 750 μl from each 1.0-ml volume to prepare samples of 1.5 ml BIM compound at 1000 ppm for testing. A total of three BIM preparations per BIM molecule were prepared and tested for killing potency. Compounds tested were BIM-1, 11, 25, 26, 28, 29, 30, 32, 34. A solution of 5% DMSO in NYSM buffer was used as a negative control.
A standard commercially available semi-solid lepidopteran diet was prepared following manufacturer's instructions (Frontier, multi-species diet). […] LB+Kanamycin (antibiotic) growth media is the negative control for bacterial cultures. […]
(§4) For each of 3 replicates, 200 μl of diet was prepared in wells of a 96-well plate and the diet plates were warmed to room temperature prior to dispensing samples. […] All bioassays were assessed visually to record larval mortality and growth inhibition.

Cry1Fa resistant FAW = assay: Killing of Cry1Fa resistant fall armyworm; format: in vivo, Spodoptera frugiperda; details: 1000 ppm BIM compound, 20 μl on diet surface; neonates; 5-7 days
Method: as §2, §3
A standard commercially available semi-solid lepidopteran diet was prepared following manufacturer's instructions (Frontier, multi-species diet). […] LB+Kanamycin (antibiotic) growth media is the negative control for bacterial cultures. Cry1Fa is a positive control prepared as E. coli cells expressing the full-length Cry1Fa protein resuspended in PBS buffer at half the volume of the original growth culture resulting in 2× concentration of cells. Vip3A is a positive control prepared as E. coli whole cell culture expressing Vip3A.
For each of 3 replicates, 200 μl of diet was prepared in wells of a 96-well plate and the diet plates were warmed to room temperature prior to dispensing samples. After 750 μl NYSM buffer was added to 750 μl from each 1.0-ml volume to prepare samples of 1.5 ml BIM compound at 1000 ppm for testing, BIM solutions were vortexed and 20 μl were dispensed onto the diet surface in each of 16 wells using a repeating pipettor. These steps were repeated for each sample and control for each insect population being tested. BIM compound and control solutions were allowed to absorb into the diet in a biosafety hood until the diet surface was visibly dry. Once dry, wells were sealed with a clear membrane. Two pin holes were poked through the membrane in each well to maintain appropriate humidity level and aeration. Each well was infested with a single neonate larva, and the wells were resealed with perforated membrane to prevent escape. The infested plates were incubated in environmental chambers at 26° C. and 50% relative humidity for 5-7 days. All bioassays were assessed visually to record larval mortality and growth inhibition.

[13] = test system: fall armyworm (FAW), susceptible and the two resistant varieties (Cry1 and Vip3A); assay: Killing of susceptible and Bt-resistant fall armyworm (strain not specified); format: in vivo, Spodoptera frugiperda; details: 1000 ppm BIM compound, 20 μl on diet surface, neonate larvae, at 7 days
Method: as §2
FAW eggs were incubated at approximately 26° C. at 50% relative humidity until eclosion (approximately 3 days) and the hatch was timed to within 12 hours of infesting the diet plates. BIM compounds were obtained from frozen stocks, thawed, suspended in 5% DMSO along with NYSM buffer to provide a solution of 2000 ppm BIM compound in a total volume of 1.0 ml, and stored at −20° C. For testing, a single tube of each BIM compound sample was thawed at 4° C. NYSM buffer was warmed to room temperature. A volume of 750 μl. […]
as §4

[14] = first instar larvae, calculated from killing dose curves FIG. 3D to 3NN, read-out: LD50 (the source's name)

Compound: c1ccc2[nH]c(Cc3c[nH]c4ccccc34)cc2c1 [3-((1H-indol-2-yl)methyl)-1H-indole, 3-((1H-Indol-2-yl)methyl)-1H-indole]
- LC50 (Aedes aegypti larvae): 5.5 µg/mL and 22.5 µM
- activity against Aedes aegypti (Aedes aegypti): active
- LC50 ([1]; first instar larvae, N=16 per concentration, representative curve fit): 598 µg/mL and 2.4 mM
- activity against S. frugiperda ([1]; first instar larvae): active

Compound: c1ccc2c(Cc3c[nH]c4ccccc34)c[nH]c2c1 [Arundine, 3,3′-diindolylmethane]
- mortality [2]: greater than 95%
- % killing ([1]; 156 μg/mL arundine): 40%
- % killing ([1]; 625 μg/mL arundine): 63%
- % killing ([1]; 2500 μg/mL arundine): 97%
- LC50 [1, 14]: 1820 µM
- % killing ([3]; 156 μg/mL arundine): 100%
- % killing ([3]; 625 μg/mL arundine): 100%
- % killing ([3]; 2500 μg/mL arundine): 100%
- % killing ([4]; 156 μg/mL arundine): 21%
- % killing ([4]; 625 μg/mL arundine): 50%
- % killing ([4]; 2500 μg/mL arundine): 39%
- % killing ([5]; 156 μg/mL arundine): 27%
- % killing ([5]; 625 μg/mL arundine): 50%
- % killing ([5]; 2500 μg/mL arundine): 80%
- % killing ([6]; 156 μg/mL arundine): 47%
- % killing ([6]; 625 μg/mL arundine): 90%
- % killing ([6]; 2500 μg/mL arundine): 83%
- % killing ([7]; 156 μg/mL arundine): 41%
- % killing ([7]; 625 μg/mL arundine): 72%
- % killing ([7]; 2500 μg/mL arundine): 93%
- % killing ([8]; 156 μg/mL arundine): 100%
- % killing ([8]; 625 μg/mL arundine): 70%
- % killing ([8]; 2500 μg/mL arundine): 97%
- % killing ([9]; 156 μg/mL arundine): 74%
- % killing ([9]; 625 μg/mL arundine): 74%
- % killing ([9]; 2500 μg/mL arundine): 87%
- % killing ([10]; 156 μg/mL arundine): 23%
- % killing ([10]; 625 μg/mL arundine): 100%
- % killing ([10]; 2500 μg/mL arundine): 100%
- % killing ([11]; 156 μg/mL arundine): 72%
- % killing ([11]; 625 μg/mL arundine): 94%
- % killing ([11]; 2500 μg/mL arundine): 72%
- % killing ([12]; 156 μg/mL arundine): 40%
- % killing ([12]; 625 μg/mL arundine): 50%
- % killing ([12]; 2500 μg/mL arundine): 90%

Compound: Clc1ccc2c(Cc3c[nH]c4cc(Cl)ccc34)c[nH]c2c1 [BIM-11]
- lethality (Vip3A resistant FAW; Vip3A-resistant neonates): 100%
- LC50 [1, 14]: 1180 µM

Compound: Clc1ccc2c(C(c3ccccc3)c3c[nH]c4cc(Cl)ccc34)c[nH]c2c1 [BIM-25]
- lethality (Vip3A resistant FAW; neonates): strong lethality
- lethality (Cry1Fa resistant FAW): strong lethality
- LC50 [1, 14]: 504 µM

Compound: Clc1ccc2c(C(Cc3ccccc3)c3c[nH]c4cc(Cl)ccc34)c[nH]c2c1 [BIM-26]
- lethality [13]: 60-70%
- LC50 [1, 14]: 581 µM

Compound: O=[N+]([O-])c1ccc(C(c2c[nH]c3cc(Cl)ccc23)c2c[nH]c3cc(Cl)ccc23)cc1 [BIM-32]
- lethality (Vip3A resistant FAW; neonates): strong lethality
- lethality (Cry1Fa resistant FAW): strong lethality

From patent US20240182413A1, “INSECTICIDAL COMPOUNDS” (Pluton Biosciences, Inc., priority 2022, published 2024)
